Laboratory results as given in ChEMBL document CHEMBL1156722, “A novel 5-[1,3,4-oxadiazol-2-yl]-N-aryl-4,6-pyrimidine diamine having dual EGFR/HER2 kinase activity: design, synthesis, and biological activity” (Bioorg Med Chem Lett, 2008).

Tests used:
[1] = molecular target: Receptor tyrosine-protein kinase erbB-2 (Homo sapiens, UniProt P04626); experiment: Inhibition of HER2
[2] = molecular target: T1, Aurora kinase A (Homo sapiens) (UniProt O14965); experiment: Inhibition of Aurora A at 100 uM
T1 sequence (whole entry): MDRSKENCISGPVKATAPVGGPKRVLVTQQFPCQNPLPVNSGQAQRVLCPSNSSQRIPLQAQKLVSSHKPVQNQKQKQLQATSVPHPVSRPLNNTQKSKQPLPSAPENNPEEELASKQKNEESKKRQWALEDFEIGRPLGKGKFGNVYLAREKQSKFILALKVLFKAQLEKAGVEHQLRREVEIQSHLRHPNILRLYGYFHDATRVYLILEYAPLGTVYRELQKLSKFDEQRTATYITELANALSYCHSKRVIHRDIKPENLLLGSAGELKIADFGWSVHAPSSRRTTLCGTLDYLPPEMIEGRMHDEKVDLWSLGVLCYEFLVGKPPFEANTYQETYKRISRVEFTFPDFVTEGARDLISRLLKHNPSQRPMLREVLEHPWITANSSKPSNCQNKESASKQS

[3] = molecular target: T2, Cyclin-dependent kinase 1 (Homo sapiens, UniProt P06493); experiment: Inhibition of CDK1 at 100 uM
Target sequence in this assay (P06493 whole entry, looked up): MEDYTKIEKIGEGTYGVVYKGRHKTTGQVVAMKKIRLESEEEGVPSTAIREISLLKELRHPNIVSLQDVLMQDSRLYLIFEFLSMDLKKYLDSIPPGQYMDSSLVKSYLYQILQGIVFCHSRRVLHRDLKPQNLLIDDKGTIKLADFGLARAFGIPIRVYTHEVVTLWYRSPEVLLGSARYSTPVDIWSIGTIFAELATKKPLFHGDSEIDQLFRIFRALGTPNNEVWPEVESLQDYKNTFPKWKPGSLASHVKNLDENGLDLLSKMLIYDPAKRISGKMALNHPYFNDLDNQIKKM

[4] = molecular target: T3, Vascular endothelial growth factor receptor 2 (Homo sapiens, UniProt P35968); experiment: Inhibition of VEGFR2 at 100 uM
T3 sequence (P35968 whole entry): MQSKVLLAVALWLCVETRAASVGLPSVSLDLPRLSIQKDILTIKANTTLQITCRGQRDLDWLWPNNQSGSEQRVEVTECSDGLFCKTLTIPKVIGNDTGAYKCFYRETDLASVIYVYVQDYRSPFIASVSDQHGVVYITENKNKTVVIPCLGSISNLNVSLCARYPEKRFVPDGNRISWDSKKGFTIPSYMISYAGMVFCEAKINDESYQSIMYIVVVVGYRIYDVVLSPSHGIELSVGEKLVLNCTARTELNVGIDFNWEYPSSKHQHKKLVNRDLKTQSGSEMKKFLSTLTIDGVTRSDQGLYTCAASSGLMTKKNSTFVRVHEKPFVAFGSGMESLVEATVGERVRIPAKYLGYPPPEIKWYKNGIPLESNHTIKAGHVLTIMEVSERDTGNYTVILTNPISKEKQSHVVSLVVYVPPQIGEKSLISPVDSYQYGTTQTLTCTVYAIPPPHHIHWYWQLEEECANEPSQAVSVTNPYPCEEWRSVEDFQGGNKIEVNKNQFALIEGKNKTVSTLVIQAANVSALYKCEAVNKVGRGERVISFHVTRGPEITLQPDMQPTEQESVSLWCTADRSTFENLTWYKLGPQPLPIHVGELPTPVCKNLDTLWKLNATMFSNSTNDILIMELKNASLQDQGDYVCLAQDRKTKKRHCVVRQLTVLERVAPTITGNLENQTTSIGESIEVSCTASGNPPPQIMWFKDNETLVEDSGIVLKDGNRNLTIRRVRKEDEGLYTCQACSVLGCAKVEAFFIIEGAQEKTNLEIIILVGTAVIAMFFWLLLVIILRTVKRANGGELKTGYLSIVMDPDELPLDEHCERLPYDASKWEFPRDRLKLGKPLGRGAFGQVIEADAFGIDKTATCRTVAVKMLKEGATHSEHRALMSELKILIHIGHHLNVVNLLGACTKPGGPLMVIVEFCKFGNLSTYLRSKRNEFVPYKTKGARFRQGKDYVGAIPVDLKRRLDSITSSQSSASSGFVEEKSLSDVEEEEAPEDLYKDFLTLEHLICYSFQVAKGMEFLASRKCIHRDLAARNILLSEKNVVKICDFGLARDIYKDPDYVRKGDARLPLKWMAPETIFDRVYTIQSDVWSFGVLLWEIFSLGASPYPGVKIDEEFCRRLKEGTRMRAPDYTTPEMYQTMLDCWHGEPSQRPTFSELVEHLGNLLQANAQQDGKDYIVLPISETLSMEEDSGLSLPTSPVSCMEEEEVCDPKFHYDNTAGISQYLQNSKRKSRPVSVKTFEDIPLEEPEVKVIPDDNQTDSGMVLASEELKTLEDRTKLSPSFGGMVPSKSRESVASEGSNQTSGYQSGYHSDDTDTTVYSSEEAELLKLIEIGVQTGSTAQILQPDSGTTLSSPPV

Aurora kinase A = molecular target: T4, Aurora kinase A (Homo sapiens, UniProt O14965); experiment: Inhibition of Aurora A
T4 sequence (O14965 whole entry): T1 sequence (whole entry)

[5] = molecular target: T2, Cyclin-dependent kinase 1; experiment: Inhibition of CDK1
Target sequence in this assay (P06493 whole entry): as the sequence (P06493 whole entry, looked up) above

[6] = molecular target: T3, Vascular endothelial growth factor receptor 2; experiment: Inhibition of VEGFR2
NCI-N87 = experiment: Cytotoxicity against human HER2-dependent N87 cells; assay type: functional, cell-based
BT-474 = experiment: Cytotoxicity against human HER2-dependent BT474 cells; assay type: functional, cell-based
SK-BR-3 = experiment: Cytotoxicity against human HER2-dependent SKBR3 cells; assay type: functional, cell-based
HeLa = experiment: Cytotoxicity against human non-HER2-dependent HeLa cells; assay type: functional, cell-based
[7] = molecular target: Epidermal growth factor receptor (Homo sapiens, UniProt P00533)
Chain of Epidermal growth factor receptor (P00533 whole entry): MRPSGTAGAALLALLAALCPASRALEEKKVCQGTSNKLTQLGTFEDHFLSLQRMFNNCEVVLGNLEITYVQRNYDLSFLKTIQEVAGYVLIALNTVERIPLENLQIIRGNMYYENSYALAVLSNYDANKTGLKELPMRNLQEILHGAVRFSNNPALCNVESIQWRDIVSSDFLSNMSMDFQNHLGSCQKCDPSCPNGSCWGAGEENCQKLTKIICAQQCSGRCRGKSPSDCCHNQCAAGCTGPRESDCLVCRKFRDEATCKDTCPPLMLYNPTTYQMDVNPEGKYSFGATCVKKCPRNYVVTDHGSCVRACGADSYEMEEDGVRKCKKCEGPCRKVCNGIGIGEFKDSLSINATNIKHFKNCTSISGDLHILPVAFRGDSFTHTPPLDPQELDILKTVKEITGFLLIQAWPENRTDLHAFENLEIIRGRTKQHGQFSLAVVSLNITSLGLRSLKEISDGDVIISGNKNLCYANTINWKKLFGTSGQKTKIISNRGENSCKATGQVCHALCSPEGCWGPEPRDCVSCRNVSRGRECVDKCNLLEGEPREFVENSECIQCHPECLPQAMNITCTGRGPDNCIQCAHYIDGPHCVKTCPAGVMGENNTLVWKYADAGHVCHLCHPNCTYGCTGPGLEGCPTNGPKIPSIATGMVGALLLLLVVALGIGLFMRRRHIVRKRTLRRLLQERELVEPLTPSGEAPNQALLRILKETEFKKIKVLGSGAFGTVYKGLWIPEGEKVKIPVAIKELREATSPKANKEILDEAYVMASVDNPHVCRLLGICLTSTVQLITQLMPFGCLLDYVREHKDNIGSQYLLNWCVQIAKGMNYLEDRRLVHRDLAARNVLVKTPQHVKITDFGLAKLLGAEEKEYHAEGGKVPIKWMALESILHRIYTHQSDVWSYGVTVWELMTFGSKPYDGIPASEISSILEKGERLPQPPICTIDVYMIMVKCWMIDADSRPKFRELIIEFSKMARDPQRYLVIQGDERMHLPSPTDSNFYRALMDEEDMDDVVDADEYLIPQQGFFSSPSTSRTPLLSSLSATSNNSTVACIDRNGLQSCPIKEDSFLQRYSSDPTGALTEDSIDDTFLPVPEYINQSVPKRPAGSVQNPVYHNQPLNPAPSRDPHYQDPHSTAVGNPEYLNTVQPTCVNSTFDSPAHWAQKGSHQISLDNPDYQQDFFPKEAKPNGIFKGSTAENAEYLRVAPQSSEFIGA

Chain of Receptor tyrosine-protein kinase erbB-2 (P04626 whole entry): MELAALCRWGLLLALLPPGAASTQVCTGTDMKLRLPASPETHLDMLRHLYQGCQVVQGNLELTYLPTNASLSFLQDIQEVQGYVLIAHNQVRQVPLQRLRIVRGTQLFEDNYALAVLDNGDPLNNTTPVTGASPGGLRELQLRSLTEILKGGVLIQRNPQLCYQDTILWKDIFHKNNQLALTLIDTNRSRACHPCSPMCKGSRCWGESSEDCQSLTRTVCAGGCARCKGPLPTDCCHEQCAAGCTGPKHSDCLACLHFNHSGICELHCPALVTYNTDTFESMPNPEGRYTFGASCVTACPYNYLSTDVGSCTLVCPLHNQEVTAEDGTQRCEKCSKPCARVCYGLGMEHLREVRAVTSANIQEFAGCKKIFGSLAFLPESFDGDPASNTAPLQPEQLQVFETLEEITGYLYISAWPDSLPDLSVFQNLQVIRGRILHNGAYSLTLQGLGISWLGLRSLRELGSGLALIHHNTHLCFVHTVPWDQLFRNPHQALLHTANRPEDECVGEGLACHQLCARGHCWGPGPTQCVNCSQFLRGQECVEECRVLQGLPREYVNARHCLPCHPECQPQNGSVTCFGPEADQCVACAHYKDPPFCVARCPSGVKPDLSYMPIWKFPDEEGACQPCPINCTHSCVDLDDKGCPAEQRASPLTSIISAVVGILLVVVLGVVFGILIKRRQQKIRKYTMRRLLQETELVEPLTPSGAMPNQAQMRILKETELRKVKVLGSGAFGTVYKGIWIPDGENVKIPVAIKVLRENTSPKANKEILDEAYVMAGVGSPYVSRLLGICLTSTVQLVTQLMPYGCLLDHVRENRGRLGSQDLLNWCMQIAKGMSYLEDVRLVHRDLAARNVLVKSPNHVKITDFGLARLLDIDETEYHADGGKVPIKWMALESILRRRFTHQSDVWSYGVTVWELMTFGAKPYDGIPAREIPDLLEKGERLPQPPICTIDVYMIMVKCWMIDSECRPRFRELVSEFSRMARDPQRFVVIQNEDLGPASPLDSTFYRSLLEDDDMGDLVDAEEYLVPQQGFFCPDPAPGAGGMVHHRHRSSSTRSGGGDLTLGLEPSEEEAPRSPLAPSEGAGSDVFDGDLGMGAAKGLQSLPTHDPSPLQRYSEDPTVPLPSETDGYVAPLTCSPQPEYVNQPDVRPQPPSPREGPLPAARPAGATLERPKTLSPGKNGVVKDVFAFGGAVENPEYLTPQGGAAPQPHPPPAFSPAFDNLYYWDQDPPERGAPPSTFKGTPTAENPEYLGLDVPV

| IC50 [1] [µM] | inhibition [2] [%] | IC50 (Aurora kinase A) [µM] | IC50 [5] [µM] | IC50 [6] [µM] | SMILES | also measured |
| --- | --- | --- | --- | --- | --- | --- |
| > 100 | – | > 100 | > 100 | > 100 | COCCNC(=O)c1c(N)ncnc1Nc1ccc(OCc2ccccc2)c(Cl)c1 | – |
| – | 73 | – | – | – | Nc1ncnc(Nc2ccc(OCc3ccccc3)c(Cl)c2)c1C(=O)O | inhibition [3]: < 10%; inhibition [4]: 30% |
| 0.1 | 50 | – | – | – | COC(=O)c1c(N)ncnc1Nc1ccc(OCc2ccccc2)c(Cl)c1 | – |
| – | 30 | – | – | – | Nc1ncnc(Nc2ccc(OCc3ccccc3)c(Cl)c2)c1C=O | inhibition [3]: < 10%; inhibition [4]: < 10% |
| 0.146 | – | > 10 | > 100 | > 10 | NNC(=O)c1c(N)ncnc1Nc1ccc(OCc2ccccc2)c(Cl)c1 | – |
| > 100 | – | > 100 | > 100 | > 100 | CCN(CC)C(=O)c1c(N)ncnc1Nc1ccc(OCc2ccccc2)c(Cl)c1 | – |

The remaining lines, values behind:

| SMILES | IC50 [1] [µM] | inhibition [2] [%] | IC50 (Aurora kinase A) [µM] | IC50 [5] [µM] | IC50 [6] [µM] | also measured |
| --- | --- | --- | --- | --- | --- | --- |
| Nc1ncnc(Nc2ccc(OCc3ccccc3)c(Cl)c2)c1C(=O)OCCN1CCOCC1 | 1.53 | 55 | – | – | – | inhibition [3]: < 10%; inhibition [4]: 11% |
| Nc1ncnc(Nc2ccc(OCc3ccccc3)c(Cl)c2)c1C(=O)NCCN1CCOCC1 | 10 | – | > 100 | > 100 | > 100 | – |
| Nc1ncnc(Nc2ccc(OCc3ccccc3)c(Cl)c2)c1-c1nnc(CCN2CCOCC2)o1 | 0.08 | – | > 100 | > 100 | > 100 | IC50 (NCI-N87): 0.411 µM; IC50 (BT-474): 0.312 µM; IC50 (SK-BR-3): 0.325 µM; IC50 (HeLa): > 100 µM; IC50 [7]: 0.03 µM |
| COc1ccc(CCNC(=O)c2c(N)ncnc2Nc2ccc(OCc3ccccc3)c(Cl)c2)cc1 | > 100 | – | > 100 | > 100 | > 100 | – |
| Nc1ncnc(Nc2ccc(OCc3ccccc3)c(Cl)c2)c1C(=O)OCc1cccc(F)c1 | > 100 | – | > 100 | > 100 | > 100 | – |
| Nc1ncnc(Nc2ccc(OCc3ccccc3)c(Cl)c2)c1C(=O)NCCN1CCCCC1 | – | – | 100 | > 100 | > 100 | – |
| N#Cc1c(N)ncnc1Nc1ccc(OCc2ccccc2)c(Cl)c1 | 0.47 | 33 | – | – | – | inhibition [3]: < 10%; inhibition [4]: 37%; IC50 [7]: 0.027 µM |
| Nc1ncnc(Nc2ccc(OCc3ccccc3)c(Cl)c2)c1C(=O)Nc1ccccc1 | > 100 | – | > 100 | > 100 | > 100 | IC50 [7]: 0.076 µM |
| Nc1ncnc(Nc2ccc(OCc3ccccc3)c(Cl)c2)c1C(=O)NNC(=O)CCN1CCOCC1 | – | – | > 100 | > 100 | > 100 | – |
| COc1ccc(NC(=O)c2c(N)ncnc2Nc2ccc(OCc3ccccc3)c(Cl)c2)cc1 | > 100 | – | > 10 | > 100 | > 100 | – |
